Assay results published in patent US8034940B2, “Modulators of glucocorticoid receptor, AP-1, and/or NF-κB activity and use thereof” (Bristol-Myers Squibb Company, priority 2006, dated 2011).

Test system: AP-1 induced transcriptional activity
Assay: Cellular Transrepressional Assay (AP-1 luciferase reporter, PMA-activated A549 cells)
Format: cell-based
Settings: for Emax: A549, 7 h, read-out: AP-1 Max % inh (Cellular Transrepression Assay)
How it was run: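 Compounds tested from 0.1 nM to 40 μM during a 7 h PMA (10 ng/ml) stimulation of A549 cells stably transfected with 7× AP-1 sites driving luciferase. Repression expressed as % reduction of PMA-induced luminescence; EC50 by curve fitting.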

[1] = Homo sapiens, maximum inhibition, Cellular Transrepression Assay
[2] = Homo sapiens, A549, Cellular Transrepression Assay

Row | SMILES | EC50 [2] [nM] | EC50 (Cellular Transrepression Assay) [nM] | Emax [1] [%] | AP-1 Max % inh (Cellular Transrepression Assay) (maximum inhibition, Cellular Transrepression Assay) [%]
1 | CC(C)(C(=O)Nc1ncc(C#N)s1)[C@H]1c2ccccc2Oc2nc(-c3ccc(C(=O)N4CCCC4)c(F)c3)ccc21 [Example 410] | 53.3 |  | 48.1 | 
2 | CC(C)(C(=O)Nc1ncc([N+](=O)[O-])s1)[C@H]1c2ccccc2Oc2nc(-c3ccc(C(=O)N4CCCC4)c(F)c3)ccc21 [Example 411] | 161 |  | 58.5 | 
3 | CCOC(=O)c1nnc(NC(=O)C(C)(C)[C@H]2c3ccccc3Oc3nc(-c4ccc(C(=O)N5CCCC5)c(F)c4)ccc32)s1 [Example 417] | 67.3 |  | 54.1 | 
4 | CC(C)(C(=O)Nc1nnc(C(N)=O)s1)[C@H]1c2ccccc2Oc2nc(-c3ccc(C(=O)N4CCCC4)c(F)c3)ccc21 [Example 418] | 82.1 |  | 29.1 | 
5 | CNC(=O)c1nnc(NC(=O)C(C)(C)[C@H]2c3ccccc3Oc3nc(-c4ccc(C(=O)N5CCCC5)c(F)c4)ccc32)s1 [Example 419] | 71.9 |  | 46.6 | 
6 | CN(C)C(=O)c1nnc(NC(=O)C(C)(C)[C@H]2c3ccccc3Oc3nc(-c4ccc(C(=O)N5CCCC5)c(F)c4)ccc32)s1 [Example 420] | 41.9 |  | 42.1 | 
7 | CCNC(=O)c1nnc(NC(=O)C(C)(C)[C@H]2c3ccccc3Oc3nc(-c4ccc(C(=O)N5CCCC5)c(F)c4)ccc32)s1 [Example 421] | 49.8 |  | 42.6 | 
8 | CC(C)(C(=O)Nc1nnc(C(=O)NC2CC2)s1)[C@H]1c2ccccc2Oc2nc(-c3ccc(C(=O)N4CCCC4)c(F)c3)ccc21 [Example 422] | 84.1 |  | 41.6 | 
9 | CC(C)(C(=O)Nc1nnc(C(=O)NC2CC2)s1)[C@H]1c2ccccc2Oc2nc(-c3ccc(C(=O)N4CCOCC4)cc3)ccc21 [Example 422] | 46.7 |  | 63.5 | 
10 | CNC(=O)c1nnc(NC(=O)C(C)(C)[C@H]2c3ccccc3Oc3nc(-c4ccc(C(=O)N5CCOCC5)cc4)ccc32)s1 [Example 422] | 51.5 |  | 50.5 | 
11 | CC(C)(C(=O)Nc1nnc(CO)s1)[C@H]1c2ccccc2Oc2nc(-c3ccc(C(=O)N4CCCC4)c(F)c3)ccc21 [Example 423] | 82 |  | 30.4 | 
12 | CSc1cnc(NC(=O)C(C)(C)[C@H]2c3ccccc3Oc3nc(-c4ccc(C(=O)N5CCCC5)c(F)c4)ccc32)s1 [Example 424] | 150 |  | 59.6 | 
13 | CSc1nnc(NC(=O)C(C)(C)[C@H]2c3ccccc3Oc3nc(-c4ccc(C(=O)N5CCCC5)c(F)c4)ccc32)s1 [Example 425] | 84.4 |  | 49.9 | 
14 | CC(C)(C(=O)Nc1ncc(S(C)(=O)=O)s1)[C@H]1c2ccccc2Oc2nc(-c3ccc(C(=O)N4CCCC4)c(F)c3)ccc21 [Example 426] | 117 |  | 31.8 | 
15 | C[S+]([O-])c1cnc(NC(=O)C(C)(C)[C@H]2c3ccccc3Oc3nc(-c4ccc(C(=O)N5CCCC5)c(F)c4)ccc32)s1 (some centres unmarked) [Example 427] | 188 |  | 25.1 | 
16 | CC(C)(C(=O)Nc1nnc(N)s1)[C@H]1c2ccccc2Oc2nc(-c3ccc(C(=O)N4CCCC4)c(F)c3)ccc21 [Example 428] | 30.3 |  | 26.9 | 
17 | CN(C)c1nnc(NC(=O)C(C)(C)[C@H]2c3ccccc3Oc3nc(-c4ccc(C(=O)N5CCCC5)c(F)c4)ccc32)s1 [Example 429] | 67.3 |  | 41.8 | 
18 | CC(C)(C(=O)Nc1nnc(CF)s1)[C@H]1c2ccccc2Oc2nc(-c3ccc(C(=O)N4CCOCC4)cc3)ccc21 [Example 430] | 34.7 |  | 47.2 | 
19 | CC(C)(C(=O)Nc1nnc(CF)s1)[C@H]1c2ccccc2Oc2nc(-c3ccc(C(=O)N4CCCC4)c(F)c3)ccc21 [Example 431] | 69 |  | 41.8 | 
20 | CC(C)(C(=O)Nc1nnc(C#N)s1)[C@H]1c2ccccc2Oc2nc(-c3ccc(C(=O)N4CCOCC4)cc3)ccc21 [Example 434] |  | 197 |  | 38.45
21 | CC(C)(C(=O)Nc1nnc(C#N)s1)[C@H]1c2ccccc2Oc2nc(-c3ccc(C(=O)N4CCCC4)c(F)c3)ccc21 [Example 435] | 292 |  | 27.9 | 
22 | CC(C)(C(=O)Nc1ncns1)[C@H]1c2ccccc2Oc2nc(-c3ccc(C(=O)N4CCCC4)cc3)ccc21 [Example 455] | 24.6 |  | 58.6 | 
23 | CC(C)(C(=O)Nc1ncns1)[C@H]1c2ccccc2Oc2nc(-c3ccc(C(=O)N4CCCC4)c(F)c3)ccc21 [Example 456] | 41.5 |  | 45.8 | 
24 | CC(C)(C(=O)Nc1ncns1)[C@H]1c2ccccc2Oc2nc(-c3ccc(C(=O)N4CCOCC4)cc3)ccc21 [Example 457] | 16.6 |  | 51.9 | 
25 | CC(C)(C(=O)Nc1ncns1)[C@H]1c2ccccc2Oc2nc(-c3ccc(C(=O)N4CCOCC4)c(F)c3)ccc21 [Example 468] | 35.4 |  | 53.3 | 
26 | Cc1nnc(NC(=O)C(C)(C)[C@H]2c3ccccc3Oc3nc(-c4ccc(C(=O)N5CCOCC5)c(F)c4)ccc32)s1 [Example 472] | 26.9 |  | 47 | 
27 | Cc1nnc(NC(=O)C(C)(C)[C@H]2c3ccccc3Oc3nc(-c4ccc(C(=O)N5CCOCC5)c(Cl)c4)ccc32)s1 [Example 473] | 40.2 |  | 52.5 | 

Further lines, with some results ahead:

Row | EC50 [2] [nM] | EC50 (Cellular Transrepression Assay) [nM] | SMILES | Emax [1] [%] | AP-1 Max % inh (Cellular Transrepression Assay) (maximum inhibition, Cellular Transrepression Assay) [%]
28 | 364 |  | CC(C)(C(=O)Nc1nncs1)[C@H]1c2ccccc2Oc2nc(C3=CCN(C(=O)N4CCCC4)CC3)ccc21 [Example 408] | 24.1 | 
29 | 52.7 |  | CN(C)C(=O)c1ccc(-c2ccc3c(n2)Oc2ccccc2[C@@H]3C(C)(C)C(=O)Nc2nnc(CF)s2)cc1 [Example 432] | 40.2 | 
30 | 41 |  | CC(C)(C(=O)Nc1nnc(CF)s1)[C@H]1c2ccccc2Oc2nc(-c3ccc(C(=O)N4CCCC4)cc3)ccc21 [Example 433] | 46.2 | 
31 | 95.7 |  | CCCC/C=C/c1ccc2c(n1)Oc1ccccc1[C@@H]2C(C)(C)C(=O)Nc1nncs1 [Example 436] | 44 | 
32 | 63.9 |  | CN(C)C(=O)c1ccc(-c2ccc3c(n2)Oc2ccccc2C3C(C)(C)C(=O)Nc2ncns2)cc1 (centres unmarked) [Example 441] | 52.4 | 
33 | 127 |  | CN(C)C(=O)c1ccc(-c2ccc3c(n2)Oc2ccccc2C3C(C)(C)C(=O)NC2=NCCS2)cc1 (centres unmarked) [Example 442] | 50.1 | 
34 | 134 |  | Cc1csc(NC(=O)C(C)(C)[C@H]2c3ccccc3Oc3nc(-c4ccc(C(=O)N(C)C)cc4)ccc32)n1 [Example 443] | 51.7 | 
35 | 44.2 |  | Cc1cnc(NC(=O)C(C)(C)[C@H]2c3ccccc3Oc3nc(-c4ccc(C(=O)N(C)C)cc4)ccc32)s1 [Example 444] | 57.5 | 
36 | 38.5 |  | Cc1nnc(NC(=O)C(C)(C)[C@H]2c3ccccc3Oc3nc(-c4ccc(C(=O)N(C)C)cc4)ccc32)s1 [Example 445] | 45.7 | 
37 | 413 |  | CN(C)C(=O)c1ccc(-c2ccc3c(n2)Oc2ccccc2[C@@H]3C(C)(C)C(=O)Nc2nnc(C(F)(F)F)s2)cc1 [Example 446] | 27.7 | 
38 | 95.4 |  | CCc1nnc(NC(=O)C(C)(C)[C@H]2c3ccccc3Oc3nc(-c4ccc(C(=O)N(C)C)cc4)ccc32)s1 [Example 447] | 53 | 
39 | 178 |  | CN(C)C(=O)c1ccc(-c2ccc3c(n2)Oc2ccccc2[C@@H]3C(C)(C)C(=O)Nc2nnc(C3CC3)s2)cc1 [Example 448] | 56.6 | 
40 | 126 |  | Cc1nsc(NC(=O)C(C)(C)[C@H]2c3ccccc3Oc3nc(-c4ccc(C(=O)N(C)C)cc4)ccc32)n1 [Example 449] | 48.9 | 
41 | 59.2 |  | CC(C)(C(=O)Nc1nncs1)[C@H]1c2ccccc2Oc2nc(-c3cn[nH]c3)ccc21 [Example 450] | 26.3 | 
42 | 11.1 |  | CC(=O)c1ccc(-c2ccc3c(n2)Oc2ccccc2[C@@H]3C(C)(C)C(=O)Nc2nncs2)s1 [Example 452] | 53.4 | 
43 | 25.3 |  | CCN(C)C(=O)c1ccc(-c2ccc3c(n2)Oc2ccccc2[C@@H]3C(C)(C)C(=O)Nc2ncns2)cc1F [Example 454] | 49.5 | 
44 | 53.2 |  | CC(C)Oc1ccc(-c2ccc3c(n2)Oc2ccccc2[C@@H]3C(C)(C)C(=O)Nc2ncns2)cc1 [Example 458] | 35.2 | 
45 | 102 |  | CC(C)Oc1ccc(-c2ccc3c(n2)Oc2ccccc2[C@@H]3C(C)(C)C(=O)Nc2ncns2)cc1F [Example 459] | 35.4 | 
46 | 30.3 |  | Cc1nnc(NC(=O)C(C)(C)[C@H]2c3ccccc3Oc3nc(-c4ccc(C(=O)N5CCCC5)cc4)ccc32)s1 [Example 460] | 56.9 | 
47 | 53.4 |  | Cc1nnc(NC(=O)C(C)(C)[C@H]2c3ccccc3Oc3nc(-c4ccc(OC(C)C)cc4)ccc32)s1 [Example 461] | 50.8 | 
48 | 45.3 |  | CC(C)(C(=O)Nc1nncs1)[C@H]1c2ccccc2Oc2nc(-c3ccc(C(=O)N4CCOCC4)s3)ccc21 [Example 463] | 26.2 | 
49 | 18.2 |  | CCN(C)C(=O)c1ccc(-c2ccc3c(n2)Oc2ccccc2[C@@H]3C(C)(C)C(=O)Nc2nnc(C)s2)cc1 [Example 464] | 54 | 
50 | 16.6 |  | Cc1nnc(NC(=O)C(C)(C)[C@H]2c3ccccc3Oc3nc(-c4ccc(C(=O)N5CCOCC5)cc4)ccc32)s1 [Example 465] | 61.5 | 
51 | 28.2 |  | Cc1nnc(NC(=O)C(C)(C)[C@H]2c3ccccc3Oc3nc(-c4ccc(C(=O)N5CCC(F)(F)C5)cc4)ccc32)s1 [Example 466] | 56.1 | 
52 | 15 |  | CCN(C)C(=O)c1ccc(-c2ccc3c(n2)Oc2ccccc2[C@@H]3C(C)(C)C(=O)Nc2ncns2)cc1 [Example 467] | 57.5 | 
53 | 24.6 |  | CC(C)(C(=O)Nc1nncs1)[C@H]1c2ccccc2Oc2nc(-c3ccc(CO)s3)ccc21 [Example 470] | 43 | 
54 | 63.9 |  | CN(C)C(=O)c1ccc(-c2ccc3c(n2)Oc2ccccc2[C@@H]3C(C)(C)C(=O)Nc2ncns2)cc1 [Example 471] | 52.4 | 
55 | 85.4 |  | Cc1nnc(NC(=O)C(C)(C)[C@H]2c3ccccc3Oc3nc(-c4ccc(C(=O)N(C)C)c(F)c4)ccc32)s1 [Example 474] | 37.9 | 
